This is an account of results in ChEMBL document CHEMBL4725311, “Discovery of potent, orally bioavailable in vivo efficacious antagonists of the TLR7/8 pathway” (Bioorg Med Chem Lett, 2020).

A short description of data set [1]: Volume of distribution at steady state in BALB/c mouse at 5 mg/kg, iv. In kind it is ADME, organism-based. Particulars: in vivo, read-out: Vdss.
A short description of data set [2]: AUC in BALB/c mouse at 20 mg/kg, po. Further details: dose 20 mg/kg. The format is ADME, organism-based. Particulars: in vivo.
Another data set addresses T1, Toll-like receptor 7 (Mus musculus, UniProt P58681).
T1 sequence (P58681 whole entry): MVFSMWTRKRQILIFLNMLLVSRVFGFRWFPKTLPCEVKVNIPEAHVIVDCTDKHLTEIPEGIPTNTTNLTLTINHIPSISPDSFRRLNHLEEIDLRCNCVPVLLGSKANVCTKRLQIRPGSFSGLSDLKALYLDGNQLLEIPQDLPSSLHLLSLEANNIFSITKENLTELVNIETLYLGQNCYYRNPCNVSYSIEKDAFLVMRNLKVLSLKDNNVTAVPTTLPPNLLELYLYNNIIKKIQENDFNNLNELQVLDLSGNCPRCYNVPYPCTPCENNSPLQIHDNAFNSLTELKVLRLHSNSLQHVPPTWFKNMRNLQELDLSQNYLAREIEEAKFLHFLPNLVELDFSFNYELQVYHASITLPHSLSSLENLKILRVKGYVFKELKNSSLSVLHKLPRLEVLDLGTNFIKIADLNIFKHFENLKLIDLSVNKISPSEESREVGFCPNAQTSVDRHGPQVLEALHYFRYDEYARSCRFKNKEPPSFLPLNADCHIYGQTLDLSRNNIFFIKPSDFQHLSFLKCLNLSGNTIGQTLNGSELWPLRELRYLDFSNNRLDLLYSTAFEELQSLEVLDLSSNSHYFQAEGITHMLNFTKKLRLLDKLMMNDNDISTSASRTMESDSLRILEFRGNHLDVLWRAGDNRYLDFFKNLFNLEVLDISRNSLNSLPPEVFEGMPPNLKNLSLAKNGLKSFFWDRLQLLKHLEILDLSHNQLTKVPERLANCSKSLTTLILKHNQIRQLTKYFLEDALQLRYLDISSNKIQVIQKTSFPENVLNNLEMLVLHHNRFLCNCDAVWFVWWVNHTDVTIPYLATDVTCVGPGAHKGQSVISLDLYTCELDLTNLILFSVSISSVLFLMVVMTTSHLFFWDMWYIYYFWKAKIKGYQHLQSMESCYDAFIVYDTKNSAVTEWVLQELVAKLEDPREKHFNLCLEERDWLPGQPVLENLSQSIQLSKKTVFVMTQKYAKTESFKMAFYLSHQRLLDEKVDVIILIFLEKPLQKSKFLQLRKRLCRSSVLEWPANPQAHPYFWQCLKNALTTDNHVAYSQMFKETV
The experiment in a line: Antagonist activity at TLR7 in mouse splenocytes assessed as inhibition of ssRNA40-induced IL6 production. In kind it is cell-based, Splenocyte.

Another data set concerns the target T2, Toll-like receptor 9 (Mus musculus, UniProt Q9EQU3).
T2 sequence (Q9EQU3 whole entry): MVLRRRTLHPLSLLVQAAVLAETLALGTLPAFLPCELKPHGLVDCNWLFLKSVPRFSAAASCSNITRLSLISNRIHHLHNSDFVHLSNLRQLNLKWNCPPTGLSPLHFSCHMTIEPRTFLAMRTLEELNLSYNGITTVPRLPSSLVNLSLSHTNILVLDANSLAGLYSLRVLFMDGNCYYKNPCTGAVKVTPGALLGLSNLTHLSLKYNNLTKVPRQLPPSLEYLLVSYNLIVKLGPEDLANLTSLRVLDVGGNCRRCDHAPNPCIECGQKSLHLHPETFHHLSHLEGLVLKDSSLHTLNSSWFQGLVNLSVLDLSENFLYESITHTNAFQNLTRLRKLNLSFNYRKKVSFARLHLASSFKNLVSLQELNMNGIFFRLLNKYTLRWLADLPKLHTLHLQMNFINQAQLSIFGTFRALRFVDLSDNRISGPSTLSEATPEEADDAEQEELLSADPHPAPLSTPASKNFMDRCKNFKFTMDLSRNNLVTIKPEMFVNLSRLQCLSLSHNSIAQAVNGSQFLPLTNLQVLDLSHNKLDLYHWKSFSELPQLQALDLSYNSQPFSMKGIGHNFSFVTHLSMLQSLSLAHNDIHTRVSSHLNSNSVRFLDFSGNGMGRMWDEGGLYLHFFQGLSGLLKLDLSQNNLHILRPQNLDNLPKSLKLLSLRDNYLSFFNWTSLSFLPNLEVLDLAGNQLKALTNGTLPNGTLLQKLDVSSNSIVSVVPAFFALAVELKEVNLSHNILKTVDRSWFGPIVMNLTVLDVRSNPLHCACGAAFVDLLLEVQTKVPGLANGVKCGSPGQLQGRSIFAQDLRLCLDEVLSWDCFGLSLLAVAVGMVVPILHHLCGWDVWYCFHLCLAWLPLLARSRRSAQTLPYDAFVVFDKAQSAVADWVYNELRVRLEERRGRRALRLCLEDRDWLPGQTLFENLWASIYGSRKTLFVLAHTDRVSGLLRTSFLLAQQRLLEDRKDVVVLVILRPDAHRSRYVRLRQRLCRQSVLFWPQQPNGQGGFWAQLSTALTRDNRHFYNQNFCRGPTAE
Kind of data set: Antagonist activity at TLR9 in mouse splenocytes assessed as inhibition of CpG1585-induced IL6 production. In kind it is cell-based, Splenocyte.

Data set [3] in a line: Cmax in BALB/c mouse at 20 mg/kg, po. In kind it is ADME, organism-based. More on the design: route oral, dose 20 mg/kg. Particulars: in vivo.
The nature of data set [4]: Oral bioavailability in BALB/c mouse at 20 mg/kg. The format is ADME, organism-based. Particulars: in vivo.
Data set [5] in a line: Clearance in BALB/c mouse at 5 mg/kg, iv. In kind it is ADME, organism-based. Particulars: in vivo.
Data set [6] can be described thus: Terminal half life in BALB/c mouse at 5 mg/kg, iv. Particulars: in vivo, read-out: beta t1/2 (converted). In kind it is ADME, organism-based.

As a reminder, the AUC is concentration integrated over time. A high value points to high exposure. For orientation: IC50 means the concentration at which inhibition is half-maximal. Usually Cmax stands for the peak of the concentration-time curve. A word on the bioavailability: it is the share of a dose that reaches the circulation, judged against a reference dose that is usually intravenous. A lower bioavailability goes with poor availability. By clearance is commonly meant the rate of elimination divided by the concentration.

With `Cc1cc(-c2ccnc3[nH]ncc23)cnc1OCC12CCC(N)(CC1)CC2`, the Vd in data set [1] was 5.1 L/kg. This molecule returned an AUC in data set [2] of 29.6 µM·h. The IC50 at Toll-like receptor 7 was found to be 4 nM; at Toll-like receptor 9, 1200 nM. Further, the peak level in data set [3] (Cmax) was 3.23 µM. In data set [4], this molecule returned a bioavailability of 75%. This molecule came in with a clearance in data set [5] of 23 mL/min/kg. Also, the half-life in data set [6] was 4 h.
